Test results: paper PMC4077652, “An Unstable Th Epitope of P. falciparum Fosters Central Memory T Cells and Anti-CS Antibody Responses” (PLoS ONE, 2014)
Where two headings read alike, the source gives them in different places. Where no end group is shown, it is not given here.

Legend:
HLA-DRβ1*04:01 (DR4) [1] = molecular target: T1, HLA-DRβ1*04:01 (DR4) (Homo sapiens, UniProt P01903+P01911, A100K/A169T/F76Y/I96L/K127E/L162R/M171V/N62H/P40V/Q125Y/R42H/S133A/S149N/S66Y/V115G/V209L/W38E); assay: biochemical; type: binding
HLA-DR4 = HLA-DR4 (Homo sapiens, UniProt P01903+P01911, A100K/A169T/F76Y/I96L/K127E/L162R/M171V/N62H/P40V/Q125Y/R42H/S133A/S149N/S66Y/V115G/V209L/W38E); details: binding to HLA-DR4, previously reported; read-out: IC50, competition binding assay; cited from earlier work
HLA-DRβ1*04:01 (DR4) [2] = molecular target: T1, HLA-DRβ1*04:01 (DR4); assay: biochemical; type: binding; remark: listed apart in the source
[3] = IC50, competition binding assay

| Compound | IC50 (HLA-DRβ1*04:01 (DR4) [1]) [µM] | other results |
| --- | --- | --- |
| Ac-SLSTEWSPCSVT-NH2 [QN-334-345] | 2.82 |  |
| Ac-QNSLSTEWSPCS-NH2 [QN-332-343] | 5.58 |  |
| Ac-ANSLSTEWSPCSVT-NH2 [Q332A] | 1.19 |  |
| Ac-QASLSTEWSPCSVT-NH2 [N333A] | 2.65 |  |
| Ac-QNSLSTEWAPCSVT-NH2 [S340A] | 24.6 |  |
| Ac-QNSLSTEWSPASVT-NH2 [C342A] | 0.73 |  |
| Ac-QNSLSTEWSACSVT-NH2 [P341A] | 7.75 |  |
| Ac-QNSLSTEASPCSVT-NH2 [W339A] | 1.42 |  |
| Ac-QNSLSTEWSPCSVA-NH2 [T345A] | 0.71 |  |
| SLSTEWSPCSV [T*-5] |  | IC50 (HLA-DR4): 0.9 µM |
| Ac-QNSASTEWSPCSVT-NH2 [L335A] | 68.4 |  |
| QNSLSTEWSPCSVT [QNT-5] |  | IC50 (HLA-DRβ1*04:01 (DR4) [1]; IC50 (quoted from Table 2)): ~0.025 µM; IC50 (HLA-DRβ1*04:01 (DR4) [1]; [3]): ~1.7 µM; IC50 (HLA-DRβ1*04:01 (DR4) [1]; IC50 range values (95% C.I.)): 1.53 to 1.85 µM; Kd (HLA-DRβ1*04:01 (DR4) [2]; apparent equilibrium binding affinity, […], DR-ELISA, read-out: Kd (nM) DM+): 714.1 ± 3.9 nM; Kd (HLA-DRβ1*04:01 (DR4) [2]; apparent equilibrium binding affinity, […], DR-ELISA, read-out: Kd (nM) DM-): 504 ± 86.2 nM |
| Ac-LSTEWSPCS-NH2 [QN-335-343] | 75.8 |  |
| Ac-QNALSTEWSPCSVT-NH2 [S334A] | 1.14 |  |
| Ac-QNSLSTEWSPCSAT-NH2 [V344A] | 0.44 |  |
| Ac-QNSLSAEWSPCSVT-NH2 [T337A] | 1.3 |  |
| QNSYSTEWSPCSVT [QNT-Y] |  | IC50 (HLA-DRβ1*04:01 (DR4) [1]; IC50 (quoted from Table 2)): ~0.5 µM; IC50 (HLA-DRβ1*04:01 (DR4) [1]; [3]): ~0.13 µM; IC50 (HLA-DRβ1*04:01 (DR4) [1]; IC50 range values (95% C.I.)): 0.124 to 0.14 µM; Kd (HLA-DRβ1*04:01 (DR4) [2]; Kd (nM) DM+): 35.7 ± 20.5 nM; Kd (HLA-DRβ1*04:01 (DR4) [2]; Kd (nM) DM-): 25.5 ± 10.7 nM |
| CC(C)[C@H](NC(=O)[C@H](CC(N)=O)NC(=O)[C@@H]1CCCN1C(=O)[C@H](CC(N)=O)NC(=O)[C@H](C)NC(=O)[C@H](CC(N)=O)NC(=O)[C@@H]1CCCN1C(=O)[C@H](CC(=O)O)NC(=O)[C@@H](NC(=O)[C@H](CC(N)=O)NC(=O)[C@@H]1CCCN1C(=O)[C@H](CC(N)=O)NC(=O)[C@H](C)NC(=O)[C@H](CC(N)=O)NC(=O)[C@@H]1CCCN1C(=O)[C@@H](N)CC(=O)O)C(C)C)C(=O)O [T1, reference compound] |  | IC50 (HLA-DRβ1*04:01 (DR4) [1]; IC50, binding to DRβ1*04:01): ~18 µM |
| Ac-QNSLSTEWSPCAVT-NH2 [S343A] | 0.7 |  |
| Ac-QNSLSTAWSPCSVT-NH2 [E338A] | 3.4 |  |
| Ac-STEWSPCS-NH2 [QN-336-343] | 6740 |  |
| Ac-QNSLATEWSPCSVT-NH2 [S336A] | 0.91 |  |
